# From PubChem BioAssay AID194 (DTP/NCI, 2004)
# Values joined by “and” are separate entries in the source; they are usually repeats but may differ in a detail not shown here. Identical values can stand only once. Results filed as inconclusive are left out.
# System: BDF1 mice, B16 melanoma s.c., survival/tumor T/C
# Assay: NCI In Vivo Anticancer Drug Screen. Data for tumor model B16 Melanoma (subcutaneous) in B6D2F1 (BDF1) mice
# Method: The antitumor activity of compounds was measured in mice bearing transplantable tumors. Survival or tumor size were measured and the results are expressed as the measurement made in the treated group (T) divided by the measurement made in the vehicle treated control group (C). The tumor model used in this assay is B16 Melanoma (subcutaneous) in B6D2F1 (BDF1) mice
# [1] = endpoint: median survival time, dose: 5.0 mg/kg/injection, schedule: Q01DX009 (ip), vehicle: saline, higher = longer survival
# [2] = endpoint: median survival time, dose: 10.0 mg/kg/injection, schedule: Q01DX009 (ip), vehicle: saline, higher = longer survival
# [3] = endpoint: median survival time, dose: 20.0 mg/kg/injection, schedule: Q01DX009 (ip), vehicle: saline, higher = longer survival
# [4] = endpoint: median survival time, dose: 50.0 mg/kg/injection, schedule: Q04DX003 (ip), vehicle: saline, higher = longer survival
compound,measurement,setting,value
COc1cc2c(c(OC)c1OC)-c1ccc(OC)c(=O)cc1[C@@H](NC(C)=O)CC2,T/C,"endpoint: median survival time, dose: 63.0 micrograms/kg/injection, schedule: Q01DX009 (ip), vehicle: saline, higher = longer survival",95 % of control
same,T/C,"endpoint: median survival time, dose: 125.0 micrograms/kg/injection, schedule: Q01DX009 (ip), vehicle: saline, higher = longer survival",116 % of control
same,T/C,"endpoint: median survival time, dose: 250.0 micrograms/kg/injection, schedule: Q01DX009 (ip), vehicle: saline, higher = longer survival",105 % of control
same,T/C,"endpoint: median survival time, dose: 500.0 micrograms/kg/injection, schedule: Q01DX009 (ip), vehicle: saline, higher = longer survival",103 % of control
NCCc1ccc(O)c(O)c1,T/C,"endpoint: median survival time, dose: 100.0 mg/kg/injection, schedule: Q01DX009 (ip), vehicle: saline, higher = longer survival",107 % of control
same,T/C,"endpoint: median survival time, dose: 200.0 mg/kg/injection, schedule: Q01DX009 (ip), vehicle: saline, higher = longer survival",106 % of control
same,T/C,"endpoint: median survival time, dose: 400.0 mg/kg/injection, schedule: Q01DX009 (ip), vehicle: saline, higher = longer survival",97 % of control
same,T/C,"endpoint: median survival time, dose: 600.0 mg/kg/injection, schedule: Q01DX009 (ip), vehicle: saline, higher = longer survival",110 % of control
CCOC(=O)C1CCC(NC(=O)N(CCCl)N=O)CC1 (centres undefined),T/C,"endpoint: median survival time, dose: 33.0 mg/kg/injection, schedule: Q01DX001 (ip), vehicle: gum acacia, higher = longer survival",196 % of control
same,T/C,"endpoint: median survival time, dose: 44.0 mg/kg/injection, schedule: Q01DX001 (ip), vehicle: gum acacia, higher = longer survival",192 % of control
CS(=O)(=O)OCCCNCCCOS(C)(=O)=O,T/C,[1],106 % of control
same,T/C,[2],110 % of control
same,T/C,[3],92 % of control
O=c1[nH]c(=O)n(C2CC(O)C(CO)O2)cc1C(F)(F)F (centres undefined),T/C,[2],103 % of control
same,T/C,[3],104 % of control and 111 % of control
same,T/C,"endpoint: median survival time, dose: 40.0 mg/kg/injection, schedule: Q01DX009 (ip), vehicle: saline, higher = longer survival",106 % of control
same,T/C,"endpoint: median survival time, dose: 80.0 mg/kg/injection, schedule: Q01DX009 (ip), vehicle: saline, higher = longer survival",89 % of control
same,T/C,"endpoint: median survival time, dose: 160.0 mg/kg/injection, schedule: Q01DX009 (ip), vehicle: saline, higher = longer survival",111 % of control
CC1(C)N=C(N)N=C(N)N1c1ccc(OCC(=O)Nc2ccc(S(=O)(=O)F)cc2)c(Cl)c1,T/C,[4],115 % of control
same,T/C,"endpoint: median survival time, dose: 100.0 mg/kg/injection, schedule: Q04DX003 (ip), vehicle: saline, higher = longer survival",113 % of control
O=c1[nH]cc(F)c(=O)[nH]1,T/C,[1],77 % of control
same,T/C,"endpoint: median survival time, dose: 8.4 mg/kg/injection, schedule: Q01DX009 (ip), vehicle: saline, higher = longer survival",100 % of control
same,T/C,"endpoint: median survival time, dose: 10.0 mg/kg/injection, schedule: Q01DX009 (ip), vehicle: Klucel (hydroxypropylcellulose) (HPC), higher = longer survival",100 % of control
same,T/C,"endpoint: median survival time, dose: 10.0 mg/kg/injection, schedule: Q01DX009 (ip), vehicle: saline with Tween-80, higher = longer survival",98 % of control and 101 % of control
same,T/C,"endpoint: median survival time, dose: 14.0 mg/kg/injection, schedule: Q01DX009 (ip), vehicle: saline, higher = longer survival",97 % of control
same,T/C,"endpoint: median survival time, dose: 20.0 mg/kg/injection, schedule: Q01DX009 (ip), vehicle: Klucel (hydroxypropylcellulose) (HPC), higher = longer survival",100 % of control
same,T/C,"endpoint: median survival time, dose: 20.0 mg/kg/injection, schedule: Q01DX009 (ip), vehicle: saline with Tween-80, higher = longer survival",111 % of control
same,T/C,"endpoint: median survival time, dose: 23.0 mg/kg/injection, schedule: Q01DX009 (ip), vehicle: saline, higher = longer survival",107 % of control
same,T/C,"endpoint: median survival time, dose: 23.0 mg/kg/injection, schedule: Q04DX003 (ip), vehicle: saline, higher = longer survival",100 % of control
same,T/C,"endpoint: median survival time, dose: 39.0 mg/kg/injection, schedule: Q04DX003 (ip), vehicle: saline, higher = longer survival",97 % of control
same,T/C,"endpoint: median survival time, dose: 40.0 mg/kg/injection, schedule: Q01DX009 (ip), vehicle: saline with Tween-80, higher = longer survival",98 % of control and 107 % of control
same,T/C,[4],113 % of control
same,T/C,"endpoint: median survival time, dose: 65.0 mg/kg/injection, schedule: Q04DX003 (ip), vehicle: saline, higher = longer survival",86 % of control
same,T/C,"endpoint: median survival time, dose: 108.0 mg/kg/injection, schedule: Q04DX003 (ip), vehicle: saline, higher = longer survival",107 % of control
same,T/C,"endpoint: median tumor weight (est.), dose: 10.0 mg/kg/injection, schedule: Q01DX009 (ip), vehicle: Klucel (hydroxypropylcellulose) (HPC), higher = larger tumour",97 % of control and 84 % of control
same,T/C,"endpoint: median tumor weight (est.), dose: 10.0 mg/kg/injection, schedule: Q01DX009 (ip), vehicle: saline with Tween-80, higher = larger tumour",65 % of control
same,T/C,"endpoint: median tumor weight (est.), dose: 20.0 mg/kg/injection, schedule: Q01DX009 (ip), vehicle: saline with Tween-80, higher = larger tumour",56 % of control
same,T/C,"endpoint: median tumor weight (est.), dose: 40.0 mg/kg/injection, schedule: Q01DX009 (ip), vehicle: Klucel (hydroxypropylcellulose) (HPC), higher = larger tumour",75 % of control
same,T/C,"endpoint: median tumor weight (est.), dose: 40.0 mg/kg/injection, schedule: Q01DX009 (ip), vehicle: saline with Tween-80, higher = larger tumour",39 % of control
